Measurements as given in PMC4291223, “Inhibitors of CLK Protein Kinases Suppress Cell Growth and Induce Apoptosis by Modulating Pre-mRNA Splicing” (PLoS ONE, 2015).

Experiments:
[1] = system: NCI-H23 cells; test: Cell viability assay, NCI-H23; assay type: cell-based; conditions: Homo sapiens; NCI-H23 non-small cell lung cancer
[2] = system: S6K pre-mRNA splicing in HCT-116 cells; test: S6K pre-mRNA splicing alteration (quantitative RT-PCR), HCT-116; assay type: cell-based, human; conditions: ratio of S6K exons 6–8 to exons 6–7 is 0.1
Source text: (§1) To examine whether inhibition of a particular CLK and/or SRPK contributed to the alternative splicing of S6K pre-mRNA, we used an additional series of compounds with the same scaffold as Cpd-1, Cpd-2, and Cpd-3, but different selectivity. First, we examined the correlation between the enzymatic activity and the level of splicing alterations of S6K pre-mRNA for the individual compounds. We used the exon 7-skipped type of S6K variant to calibrate Rc0.1 values, i.e., the concentrations that induced 10% of the copy number of an alternative isoform compared with that of the canonical isoform. The inhibition of CLK1 and CLK2 activities was correlated with the splicing alteration activities (Rc0.1) (R^2 = 0.3353 and 0.4255, respectively). In contrast, there was no correlation between the activities of SRPKs and the Rc0.1 values (R^2 < 0.0468) (Fig. 3A). Next, we compared the levels of splicing alteration and growth inhibition of the compounds. […] Similar correlations between Rc0.1 and GI50 values were also obtained in seven different cancer cell lines after treatment with Cpd-2 or Cpd-3 (Table 2).
(§2) Total RNA was extracted using an RNeasy Miniprep Kit (Qiagen, Valencia, CA) in accordance with the manufacturer’s instructions. Reverse transcription was performed using a TaqMan Reverse Transcription Reagents Kit (Applied Biosystems, Carlsbad, CA). The PCR conditions were as follows: one cycle of 5 min at 95°C; 35 cycles of 30 s at 94°C, 30 s at 60°C, and 30 s at 72°C; and one cycle of 10 min at 72°C. The PCR products were separated in 2% agarose gels. Real-time PCR was performed using a TaqMan MGB probe (Applied Biosystems), and the amount of FAM fluorescence was measured as a function of the PCR cycle number (CT) using an ABI 7900 Real-time PCR System (Applied Biosystems). The expression level of each mRNA was normalized by that of GAPDH mRNA.

[3] = system: S6K pre-mRNA splicing in COLO205 cells; test: S6K pre-mRNA splicing alteration (quantitative RT-PCR), COLO205; assay type: cell-based, human; conditions: ratio of S6K exons 6–8 to exons 6–7 is 0.1
Source text: as §1, §2

[4] = system: MDA-MB-468 cells; test: Cell viability assay (CellTiter-Glo), MDA-MB-468; assay type: cell-based; conditions: Homo sapiens; MDA-MB-468 breast cancer, 72 h
Protocol: MDA-MB-468 cells (5 × 10^3) were seeded into 96-well plates and incubated overnight in 50 μL of culture medium. Next, 50 µL of each compound diluted in culture medium was added to the wells. After 72 h of incubation, viability was determined using the CellTiter-Glo Luminescent Cell Viability Assay (Promega) according to the manufacturer’s instructions. The GI50 values were calculated using GraphPad Prism 5 software with a sigmoid dose-response curve.

[5] = system: COLO205 cells; test: Cell viability assay, COLO205; assay type: cell-based; conditions: Homo sapiens, COLO 205; COLO205 colorectal cancer
[6] = target: T1, CLK2 (Homo sapiens, UniProt P49760); test: Kinase panel assay (Z'-LYTE, SelectScreen), CLK2 among 28 kinases; assay type: biochemical; conditions: 100 and 1000 nM
T1 construct: purchased Life Technologies
T1 sequence (P49760 whole entry): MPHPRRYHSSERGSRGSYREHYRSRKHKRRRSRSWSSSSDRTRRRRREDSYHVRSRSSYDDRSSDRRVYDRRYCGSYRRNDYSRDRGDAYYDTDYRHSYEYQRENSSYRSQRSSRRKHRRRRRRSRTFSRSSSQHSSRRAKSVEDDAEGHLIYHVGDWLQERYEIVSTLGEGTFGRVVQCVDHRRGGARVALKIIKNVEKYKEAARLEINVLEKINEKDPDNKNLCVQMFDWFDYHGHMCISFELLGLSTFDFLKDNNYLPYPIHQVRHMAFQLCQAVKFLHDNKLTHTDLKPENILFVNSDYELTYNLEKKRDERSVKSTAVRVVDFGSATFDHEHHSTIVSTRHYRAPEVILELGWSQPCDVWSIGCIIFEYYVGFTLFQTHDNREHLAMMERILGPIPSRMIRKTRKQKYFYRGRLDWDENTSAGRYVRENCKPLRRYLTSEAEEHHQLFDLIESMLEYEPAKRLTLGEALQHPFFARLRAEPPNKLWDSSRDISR
Protocol: Kinase panel assays were performed using the FRET-based Z’- LYTE enzymatic kinase assay system (Life Technologies, Carlsbad, CA), which was carried out using the SelectScreen Kinase Profiling Service (Life Technologies). The standard reaction contained 2 μM peptide substrate, 100 μM ATP, 50 mM HEPES (pH 7.5), 0.01% Brij-35, 10 mM MgCl2, 1 mM EGTA, and each kinase. Cpd-1, Cpd-2, and Cpd-3 at two point concentration (100 and 1000 nM) with duplicate data points (n = 2) were assayed following the detailed procedures outlined in the SelectScreen. The full assay protocol and conditions can be obtained at www.lifetechnologies.com. Percent inhibition represents a ratio of phosphorylated product formed in the presence of the compound compared with phosphorylated product formed in reactions containing 1% DMSO. Inhibition data indicates the mean value of kinase inhibition from duplicate data.

[7] = target: T2, CLK1 (Homo sapiens, UniProt P49759); test: In vitro kinase assay (ADP-Glo), CLK1; assay type: biochemical; conditions: for IC50: 5 µM ATP; for activity for CLK1 relative to Cpd-1: stronger than Cpd-1
T2 construct: purchased Life Technologies
T2 sequence (P49759 whole entry): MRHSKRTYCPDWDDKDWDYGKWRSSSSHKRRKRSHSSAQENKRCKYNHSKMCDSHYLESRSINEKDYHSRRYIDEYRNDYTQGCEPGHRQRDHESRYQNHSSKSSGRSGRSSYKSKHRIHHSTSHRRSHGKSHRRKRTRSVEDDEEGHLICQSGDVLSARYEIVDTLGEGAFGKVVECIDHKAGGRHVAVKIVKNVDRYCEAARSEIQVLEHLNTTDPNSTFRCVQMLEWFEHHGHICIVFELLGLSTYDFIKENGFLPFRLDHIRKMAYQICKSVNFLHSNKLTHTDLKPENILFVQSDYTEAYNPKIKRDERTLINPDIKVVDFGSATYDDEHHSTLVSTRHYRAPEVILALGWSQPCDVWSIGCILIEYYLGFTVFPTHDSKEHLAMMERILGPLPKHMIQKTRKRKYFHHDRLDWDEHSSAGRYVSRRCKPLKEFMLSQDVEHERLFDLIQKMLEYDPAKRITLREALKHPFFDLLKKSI
Protocol: The ATP concentration for each assay was adjusted to the Km for each kinase. Kinase assays for SRPK1–3 and CLK1 were performed using the ADP-Glo™ assay (Promega, Madison, WI). The kinase buffer contained 25 mM HEPES (pH 7.5), 10 mM magnesium acetate, 1 mM DTT, 0.01% BSA, and 0.01% Tween-20. The reaction mixtures contained 50 ng/mL SRPK1, 100 ng/mL SRPK2 or SRPK3, or 300 ng/mL CLK1 and 3 μM substrate peptide [GRSRSRSRSRSRSRSR] (Thermo Scientific). After incubating the enzyme, peptide, and compounds for 10 min, kinase reactions were initiated by adding ATP to a final concentration of 5 µM, followed by incubation for 30 min (15 min for SRPK1). The kinase reactions were terminated by adding ADP-Glo™ reagent (Promega). ADP was detected using a kinase detection reagent (Promega). The kinase activity of CLK2 was measured using the LANCE® Ultra assay (Perkin-Elmer, Waltham, MA) with ADP-Glo assay buffer. The reaction mixtures contained 100 ng/mL CLK2 and 50 nM ULight™-myelin basic protein (MBP) peptide (Perkin-Elmer). After incubating the enzyme, peptide, and compounds for 5 min, kinase reactions were initiated by adding ATP to a final concentration of 20 μM, followed by incubation for 30 min. The enzyme reactions were terminated by adding 30 mM EDTA, and phosphorylated ULight-MBP peptides were detected using a europium-labeled anti-phospho-MBP antibody diluted with detection buffer (Perkin-Elmer). The plates were read using an EnVision 2102 multilabel reader (Perkin-Elmer). We defined the absorbance of the reaction without enzyme as 100% inhibitory activity and that of the complete reaction mixture as 0% inhibitory activity. The IC50 values were estimated using the “Sigmoidal dose-response (variable slope)” equation in GraphPad Prism 5 software (GraphPad Software, San Diego, CA), with the maximum and minimum of the curve constrained to 100 and 0, respectively.

[8] = system: S6K pre-mRNA splicing in A549 cells; test: S6K pre-mRNA splicing alteration (quantitative RT-PCR), A549; assay type: cell-based, human; conditions: ratio of S6K exons 6–8 to exons 6–7 is 0.1
Source text: as §1, §2

[9] = system: S6K pre-mRNA splicing in NCI-H23 cells; test: S6K pre-mRNA splicing alteration (quantitative RT-PCR), NCI-H23; assay type: cell-based, human; conditions: ratio of S6K exons 6–8 to exons 6–7 is 0.1
Source text: as §1, §2

[10] = system: S6K pre-mRNA splicing in COLO320DM cells; test: S6K pre-mRNA splicing alteration (quantitative RT-PCR), COLO320DM; assay type: cell-based, human; conditions: ratio of S6K exons 6–8 to exons 6–7 is 0.1
Source text: as §1, §2

[11] = system: HCT-116 cells; test: Cell viability assay, HCT-116; assay type: cell-based; conditions: Homo sapiens; HCT-116 colorectal cancer

| GI50 [1] [µM] | GI50 [4] [µM] | GI50 [5] [µM] | IC50 [7] [µM] | GI50 [11] [µM] | activity for CLK1 relative to Cpd-1 [7] [fold] | SMILES | Rc0.1 [2] [µM] | Rc0.1 [3] [µM] | inhibitory activity against CLK2 among the 28 critical oncology-related kinases [6] | Rc0.1 [8] [µM] | Rc0.1 [9] [µM] | Rc0.1 [10] [µM] |
| --- | --- | --- | --- | --- | --- | --- | --- | --- | --- | --- | --- | --- |
| 32 | 30.5 | 27.3 | 0.016 | 70.2 |  | CC(C)(CCc1nnn[nH]1)c1ccc(C(=O)Nc2cn3cc(C(F)(F)F)ccc3n2)cc1 [Cpd-1, 4-(2-methyl-4-(1H-tetrazol-5-yl)butan-2-yl)-N-(6-(trifluoromethyl)imidazo[1,2-a]pyridin-2-yl)benzamide] | >10 | >10 | strongest inhibitory activity against CLK2 | >10 | >10 | >10 |
| 1.4 | 3 | 1.7 | 0.0011 | 2.2 | 10 | CC(C)(C)c1ccc(C(=O)Nc2cn3cc(-c4cn[nH]c4)ccc3n2)cn1 [Cpd-2, 6-tert-butyl-N-(6-(1H-pyrazol-4-yl)imidazo[1,2-a]pyridin-2-yl)nicotinamide] | 1.2 | 1.6 | strongest inhibitory activity against CLK2 | 0.3 | 0.9 | 0.9 |
| 2.2 | 3.4 | 2.1 | 0.0011 | 2.5 | 10 | CC(C)(CO)c1ccc(C(=O)Nc2cn3cc(-c4cn[nH]c4)ccc3n2)cc1 [Cpd-3, 4-(1-hydroxy-2-methylpropan-2-yl)-N-(6-(1H-pyrazol-4-yl)imidazo[1,2-a]pyridin-2-yl)benzamide] | 1.9 | 2.6 | strongest inhibitory activity against CLK2 | 1.2 | 1.1 | 1.1 |
